pIC50: −log10 of the molar value.
target: Factor XIa (Homo sapiens (Human), UniProt P03951); experiment: Factor XIa enzyme inhibition assay (dose response, fluorogenic AMC substrate); format: biochemical; details: read-out: hFXIa IC50
Summary of the method: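 Human FXIa at 0.25 nM final with 50 μM final PyroGlu-Pro-Arg-AMC in 20 mM Hepes pH 7.4, 150 mM NaCl, 0.02% Tween 20. Two-fold serial compound dilutions; fluorescence read every minute for 30 min at 30° C. IC50 from a four-parameter Hill fit.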

Chain of Factor XIa (P03951 388-625): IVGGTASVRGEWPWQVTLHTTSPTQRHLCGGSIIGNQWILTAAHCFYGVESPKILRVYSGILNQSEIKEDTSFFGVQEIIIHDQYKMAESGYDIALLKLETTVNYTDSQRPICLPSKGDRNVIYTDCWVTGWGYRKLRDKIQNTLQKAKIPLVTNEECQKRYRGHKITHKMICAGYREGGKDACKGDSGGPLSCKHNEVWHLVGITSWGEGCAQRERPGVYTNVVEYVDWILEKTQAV
Chain of Factor XIa (P03951 19-387 partner): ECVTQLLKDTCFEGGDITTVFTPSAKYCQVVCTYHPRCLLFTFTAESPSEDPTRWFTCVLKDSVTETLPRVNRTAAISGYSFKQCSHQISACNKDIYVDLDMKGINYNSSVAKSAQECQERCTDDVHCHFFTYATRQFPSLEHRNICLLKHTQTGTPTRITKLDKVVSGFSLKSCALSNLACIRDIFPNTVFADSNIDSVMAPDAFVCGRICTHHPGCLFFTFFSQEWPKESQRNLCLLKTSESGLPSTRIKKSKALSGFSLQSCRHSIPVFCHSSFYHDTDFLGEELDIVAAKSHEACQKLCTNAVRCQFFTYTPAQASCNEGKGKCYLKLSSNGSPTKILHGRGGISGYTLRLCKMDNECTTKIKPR

`CC[C@@H](NC(=O)N1C(=O)[C@H](Cc2cc(C)nc(N)c2)[C@H]1C(=O)N(C)c1cnn(C)c1)c1ccc(C)cc1F` [Compound 1-183, (2S,3R)-3-((2-amino-6-methylpyridin-4-yl)methyl)-N2-(1-methyl-1H-pyrazol-4-yl)-N1-((R)-1-(2-fluoro-4-methylphenyl)propyl)-N2-methyl-4-oxoazetidine-1,2-dicarboxamide] and `CC[C@@H](NC(=O)N1C(=O)[C@H](Cc2cc(C)nc(N)c2)[C@H]1C(=O)N(C)c1cnn(C)c1)c1ccc(C)cc1C` [Compound 1-179, (2S,3R)-3-((2-amino-6-methylpyridin-4-yl)methyl)-N2-(1-methyl-1H-pyrazol-4-yl)-N1-((R)-1-(2,4-dimethylphenyl)propyl)-N2-methyl-4-oxoazetidine-1,2-dicarboxamide] cannot be ordered by pIC50: over 8.00 for the first, over 8.00 for the second.

`CC[C@@H](NC(=O)N1C(=O)[C@H](Cc2cc(C)nc(N)c2)[C@H]1C(=O)N(C)c1ccn(C)n1)c1ccc(C)c(C)c1` [Compound 1-145, (2S,3R)-3-((2-amino-6-methylpyridin-4-yl)methyl)-N2-(1-methyl-1H-pyrazol-3-yl)-N1-((R)-1-(3,4-dimethylphenyl)propyl)-N2-methyl-4-oxoazetidine-1,2-dicarboxamide] and `CC[C@@H](NC(=O)N1C(=O)[C@H](Cc2cc(C)nc(N)c2)[C@H]1C(=O)N(C)c1cnn(C)c1)c1ccc(C)c(C)c1` [Compound 1-175, (2S,3R)-3-((2-amino-6-methylpyridin-4-yl)methyl)-N2-(1-methyl-1H-pyrazol-4-yl)-N1-((R)-1-(3,4-dimethylphenyl)propyl)-N2-methyl-4-oxoazetidine-1,2-dicarboxamide] cannot be ordered by pIC50: over 8.00 for the first, over 8.00 for the second.

`CC[C@@H](NC(=O)N1C(=O)[C@H](Cc2ccnc(N)c2)[C@H]1C(=O)N(C)c1nccn1C)c1ccc(C)cc1Cl` [Compound 1-116, (2S,3R)-3-((2-aminopyridin-4-yl)methyl)-N2-(1-methyl-1H-imidazol-2-yl)-N1-((R)-1-(2-chloro-4-methylphenyl)propyl)-N2-methyl-4-oxoazetidine-1,2-dicarboxamide] and `CC[C@@H](NC(=O)N1C(=O)[C@H](Cc2ccnc(N)c2)[C@H]1C(=O)N(C)c1nccn1C)c1ccc(C)c(C)c1F` [Compound 1-218, (2S,3R)-3-((2-aminopyridin-4-yl)methyl)-N2-(1-methyl-1H-imidazol-2-yl)-N1-((R)-1-(2-fluoro-3,4-dimethylphenyl)propyl)-N2-methyl-4-oxoazetidine-1,2-dicarboxamide] cannot be ordered by pIC50: over 8.00 for the first, over 8.00 for the second.

`CC[C@@H](NC(=O)N1C(=O)[C@H](Cc2cc(C)nc(N)c2)[C@H]1C(=O)N(C)c1ccnn1C)c1ccc(C)cc1C` [Compound 1-161, (2S,3R)-3-((2-amino-6-methylpyridin-4-yl)methyl)-N2-(1-methyl-1H-pyrazol-5-yl)-N1-((R)-1-(2,4-dimethylphenyl)propyl)-N2-methyl-4-oxoazetidine-1,2-dicarboxamide] and `CC[C@@H](NC(=O)N1C(=O)[C@H](Cc2cc(C)nc(N)c2)[C@H]1C(=O)N(C)c1ccnn1C)c1cc(C)ccc1C` [Compound 1-166, (2S,3R)-3-((2-amino-6-methylpyridin-4-yl)methyl)-N2-(1-methyl-1H-pyrazol-5-yl)-N1-((R)-1-(2,5-dimethylphenyl)propyl)-N2-methyl-4-oxoazetidine-1,2-dicarboxamide] cannot be ordered by pIC50: over 8.00 for the first, over 8.00 for the second.

`CC[C@@H](NC(=O)N1C(=O)[C@H](Cc2ccnc(N)c2)[C@H]1C(=O)N(C)c1ccn(C)n1)c1ccc(C)c(F)c1F` [Compound 1-201, (2S,3R)-3-((2-aminopyridin-4-yl)methyl)-N2-(1-methyl-1H-pyrazol-3-yl)-N1-((R)-1-(2,3-difluoro-4-methylphenyl)propyl)-N2-methyl-4-oxoazetidine-1,2-dicarboxamide] and `CC[C@@H](NC(=O)N1C(=O)[C@H](Cc2ccnc(N)c2)[C@H]1C(=O)N(C)c1cnn(C)c1)c1ccc(C)c(F)c1F` [Compound 1-208, (2S,3R)-3-((2-aminopyridin-4-yl)methyl)-N2-(1-methyl-1H-pyrazol-4-yl)-N1-((R)-1-(2,3-difluoro-4-methylphenyl)propyl)-N2-methyl-4-oxoazetidine-1,2-dicarboxamide] cannot be ordered by pIC50: over 8.00 for the first, over 8.00 for the second.

`CC[C@@H](NC(=O)N1C(=O)[C@H](Cc2cc(C)nc(N)c2)[C@H]1C(=O)N(C)c1cnn(C)c1)c1ccc(Cl)cc1` [Compound 1-170, (2S,3R)-3-((2-amino-6-methylpyridin-4-yl)methyl)-N2-(1-methyl-1H-pyrazol-4-yl)-N1-((R)-1-(4-chlorophenyl)propyl)-N2-methyl-4-oxoazetidine-1,2-dicarboxamide] and `CC[C@@H](NC(=O)N1C(=O)[C@H](Cc2cc(C)nc(N)c2)[C@H]1C(=O)N(C)c1ccnn1C)c1ccc(Cl)cc1` [Compound 1-157, (2S,3R)-3-((2-amino-6-methylpyridin-4-yl)methyl)-N2-(1-methyl-1H-pyrazol-5-yl)-N1-((R)-1-(4-chlorophenyl)propyl)-N2-methyl-4-oxoazetidine-1,2-dicarboxamide] fall in the same range of pIC50: 7.00 to 8.00 for the first, 7.00 to 8.00 for the second.

Compared with `CCCC[C@@H](NC(=O)N1C(=O)[C@H](Cc2ccnc(N)c2)[C@H]1C(=O)N(C)c1ccn(C)n1)C1CCCCC1` [Compound 1-73, (2S,3R)-3-((2-aminopyridin-4-yl)methyl)-N2-(1-methyl-1H-pyrazol-3-yl)-N1-((R)-1-cyclohexylpentyl)-N2-methyl-4-oxoazetidine-1,2-dicarboxamide], `CNC(=O)N1C(=O)[C@H](Cc2ccnc(N)c2)[C@H]1C(=O)N(C)c1ccn(C)n1` [Compound 1-64, (2S,3R)-3-((2-aminopyridin-4-yl)methyl)-N2-(1-methyl-1H-pyrazol-3-yl)-N1-methyl-N2-methyl-4-oxoazetidine-1,2-dicarboxamide] is lower in pIC50: 7.00 to 8.00 for the first, 6.00 to 7.00 for the second.

`CC[C@@H](NC(=O)N1C(=O)[C@H](Cc2ccnc(N)c2)[C@H]1C(=O)N(C)c1ccnn1C)c1ccc(F)c(C)c1` [Compound 1-214, (2S,3R)-3-((2-aminopyridin-4-yl)methyl)-N2-(1-methyl-1H-pyrazol-5-yl)-N1-((R)-1-(4-fluoro-3-methylphenyl)propyl)-N2-methyl-4-oxoazetidine-1,2-dicarboxamide] and `CC[C@@H](NC(=O)N1C(=O)[C@H](Cc2ccnc(N)c2)[C@H]1C(=O)N(C)c1nccn1C)c1ccc(F)c(C)c1` [Compound 1-117, (2S,3R)-3-((2-aminopyridin-4-yl)methyl)-N2-(1-methyl-1H-imidazol-2-yl)-N1-((R)-1-(3-methyl-4-fluorophenyl)propyl)-N2-methyl-4-oxoazetidine-1,2-dicarboxamide] cannot be ordered by pIC50: over 8.00 for the first, over 8.00 for the second.

Compared with `CC[C@@H](NC(=O)N1C(=O)[C@H](Cc2ccnc(N)c2)[C@H]1C(=O)N(C)c1cccs1)c1ccn(C)n1` [Compound 1-49, (2S,3R)-3-((2-aminopyridin-4-yl)methyl)-N2-(thiophen-2-yl)-N1-((R)-1-(1-methyl-1H-pyrazol-3-yl)propyl)-N2-methyl-4-oxoazetidine-1,2-dicarboxamide], `CC[C@@H](NC(=O)N1C(=O)[C@H](Cc2ccnc(N)c2)[C@H]1C(=O)N(C)c1ccn(C)n1)c1ccc(C)cc1` [Compound 1-124, (2S,3R)-3-((2-aminopyridin-4-yl)methyl)-N2-(1-methyl-1H-pyrazol-3-yl)-N1-((R)-1-(4-methylphenyl)propyl)-N2-methyl-4-oxoazetidine-1,2-dicarboxamide] is higher in pIC50: 7.00 to 8.00 for the first, over 8.00 for the second. The second is the more potent here.

First: CN(C(=O)[C@@H]1[C@@H](Cc2ccnc(N)c2)C(=O)N1C(=O)NCc1cccc(Cl)c1)c1cnn(C)c1 [Compound 1-27, (2S,3R)-3-((2-aminopyridin-4-yl)methyl)-N2-(1-methyl-1H-pyrazol-4-yl)-N1-((3-chlorophenyl)methyl)-N2-methyl-4-oxoazetidine-1,2-dicarboxamide]
Second: CN(C(=O)[C@@H]1[C@@H](Cc2ccnc(N)c2)C(=O)N1C(=O)NCc1cccc(F)c1)c1cn(C)cn1 [Compound 1-34, (2S,3R)-3-((2-aminopyridin-4-yl)methyl)-N2-(1-methyl-1H-imidazol-4-yl)-N1-((3-fluorophenyl)methyl)-N2-methyl-4-oxoazetidine-1,2-dicarboxamide]
The pIC50 of the first is higher: 7.00 to 8.00 for the first, 6.00 to 7.00 for the second.

`CC[C@@H](NC(=O)N1C(=O)[C@H](Cc2ccnc(N)c2)[C@H]1C(=O)N(C)c1cnn(C)c1)c1cc(C)c(F)c(C)c1` [Compound 1-206, (2S,3R)-3-((2-aminopyridin-4-yl)methyl)-N2-(1-methyl-1H-pyrazol-4-yl)-N1-((R)-1-(3,5-dimethyl-4-fluorophenyl)propyl)-N2-methyl-4-oxoazetidine-1,2-dicarboxamide] and `CC[C@@H](NC(=O)N1C(=O)[C@H](Cc2ccnc(N)c2)[C@H]1C(=O)N(C)c1ccn(C)n1)c1cc(C)c(F)c(C)c1` [Compound 1-203, (2S,3R)-3-((2-aminopyridin-4-yl)methyl)-N2-(1-methyl-1H-pyrazol-3-yl)-N1-((R)-1-(3,5-dimethyl-4-fluorophenyl)propyl)-N2-methyl-4-oxoazetidine-1,2-dicarboxamide] cannot be ordered by pIC50: over 8.00 for the first, over 8.00 for the second.

First: CC[C@@H](NC(=O)N1C(=O)[C@H](Cc2ccnc(N)c2)[C@H]1C(=O)N(C)c1nccn1C)c1ccc(F)c(F)c1F [Compound 1-210, (2S,3R)-3-((2-aminopyridin-4-yl)methyl)-N2-(1-methyl-1H-imidazol-2-yl)-N1-((R)-1-(2,3,4-trifluorophenyl)propyl)-N2-methyl-4-oxoazetidine-1,2-dicarboxamide]
Second: CC[C@@H](NC(=O)N1C(=O)[C@H](Cc2cc(C)nc(N)c2)[C@H]1C(=O)N(C)c1cnn(C)c1)c1cccc(C)c1C [Compound 1-173, (2S,3R)-3-((2-amino-6-methylpyridin-4-yl)methyl)-N2-(1-methyl-1H-pyrazol-4-yl)-N1-((R)-1-(2,3-dimethylphenyl)propyl)-N2-methyl-4-oxoazetidine-1,2-dicarboxamide]
The pIC50 of the first is higher: over 8.00 for the first, 7.00 to 8.00 for the second. The first is the more potent here.

For `CC[C@@H](NC(=O)N1C(=O)[C@H](Cc2cc(C)nc(N)c2)[C@H]1C(=O)N(C)C1=NCC(=O)N1C)c1ccccc1` [Compound 1-148, (2S,3R)-3-((2-amino-6-methylpyridin-4-yl)methyl)-N2-(5-oxo-1-methyl-4,5-dihydro-1H-imidazol-2-yl)-N1-((R)-1-phenylpropyl)-N2-methyl-4-oxoazetidine-1,2-dicarboxamide], the pIC50 was 6.00 to 7.00.
